# Experimental data as given in publication PMC8171091, “Tanshinone I, a new EZH2 inhibitor restricts normal and malignant hematopoiesis through upregulation of MMP9 and ABCG2” (Theranostics, 2021).
# pKd: −log10 of the molar value.
# Key:
# [1] = molecular target: T1, EZH2 (wild type PRC2 complex) (Homo sapiens, UniProt Q15910); experiment: in vitro methyltransferase assay with recombinant PRC2 and histone H3.[…], western blot readout; format: biochemical
# T1 construct: wild type PRC2 complex (31387, Active Motif); with PRC2 complex (EED, SUZ12)
# T1 sequence (Q15910 whole entry): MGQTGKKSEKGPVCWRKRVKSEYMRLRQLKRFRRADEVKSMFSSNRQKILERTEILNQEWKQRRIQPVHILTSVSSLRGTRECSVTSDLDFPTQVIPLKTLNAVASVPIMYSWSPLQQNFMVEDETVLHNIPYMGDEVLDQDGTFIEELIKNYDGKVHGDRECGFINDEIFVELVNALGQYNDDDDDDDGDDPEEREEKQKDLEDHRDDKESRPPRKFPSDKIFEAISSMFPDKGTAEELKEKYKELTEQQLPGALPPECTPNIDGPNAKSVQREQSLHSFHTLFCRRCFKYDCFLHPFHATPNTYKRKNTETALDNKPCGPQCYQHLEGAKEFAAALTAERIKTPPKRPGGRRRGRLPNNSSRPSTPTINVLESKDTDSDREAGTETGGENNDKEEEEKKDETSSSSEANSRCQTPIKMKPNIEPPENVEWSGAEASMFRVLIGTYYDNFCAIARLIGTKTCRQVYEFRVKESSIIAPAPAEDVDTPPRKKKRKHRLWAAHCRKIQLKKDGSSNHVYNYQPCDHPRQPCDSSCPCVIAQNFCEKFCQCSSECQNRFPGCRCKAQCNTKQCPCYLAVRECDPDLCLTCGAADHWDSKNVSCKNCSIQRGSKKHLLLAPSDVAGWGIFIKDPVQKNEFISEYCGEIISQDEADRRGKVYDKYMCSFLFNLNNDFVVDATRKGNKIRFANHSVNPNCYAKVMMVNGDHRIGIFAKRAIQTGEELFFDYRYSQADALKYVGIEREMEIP
# T1 sequence (O75530 2-441 partner): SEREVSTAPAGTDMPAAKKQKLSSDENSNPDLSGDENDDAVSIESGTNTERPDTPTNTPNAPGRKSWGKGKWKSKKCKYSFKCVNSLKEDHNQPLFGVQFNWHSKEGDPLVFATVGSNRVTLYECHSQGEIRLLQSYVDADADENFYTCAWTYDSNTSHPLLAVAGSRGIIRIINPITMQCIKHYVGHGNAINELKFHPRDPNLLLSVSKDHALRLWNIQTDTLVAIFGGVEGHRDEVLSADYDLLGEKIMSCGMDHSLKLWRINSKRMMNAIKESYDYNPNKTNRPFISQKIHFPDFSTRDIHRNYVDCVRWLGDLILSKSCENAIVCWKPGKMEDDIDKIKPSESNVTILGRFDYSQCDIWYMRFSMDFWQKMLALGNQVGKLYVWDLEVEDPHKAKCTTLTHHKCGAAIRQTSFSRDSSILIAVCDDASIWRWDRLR
# T1 sequence (Q15022 whole entry partner): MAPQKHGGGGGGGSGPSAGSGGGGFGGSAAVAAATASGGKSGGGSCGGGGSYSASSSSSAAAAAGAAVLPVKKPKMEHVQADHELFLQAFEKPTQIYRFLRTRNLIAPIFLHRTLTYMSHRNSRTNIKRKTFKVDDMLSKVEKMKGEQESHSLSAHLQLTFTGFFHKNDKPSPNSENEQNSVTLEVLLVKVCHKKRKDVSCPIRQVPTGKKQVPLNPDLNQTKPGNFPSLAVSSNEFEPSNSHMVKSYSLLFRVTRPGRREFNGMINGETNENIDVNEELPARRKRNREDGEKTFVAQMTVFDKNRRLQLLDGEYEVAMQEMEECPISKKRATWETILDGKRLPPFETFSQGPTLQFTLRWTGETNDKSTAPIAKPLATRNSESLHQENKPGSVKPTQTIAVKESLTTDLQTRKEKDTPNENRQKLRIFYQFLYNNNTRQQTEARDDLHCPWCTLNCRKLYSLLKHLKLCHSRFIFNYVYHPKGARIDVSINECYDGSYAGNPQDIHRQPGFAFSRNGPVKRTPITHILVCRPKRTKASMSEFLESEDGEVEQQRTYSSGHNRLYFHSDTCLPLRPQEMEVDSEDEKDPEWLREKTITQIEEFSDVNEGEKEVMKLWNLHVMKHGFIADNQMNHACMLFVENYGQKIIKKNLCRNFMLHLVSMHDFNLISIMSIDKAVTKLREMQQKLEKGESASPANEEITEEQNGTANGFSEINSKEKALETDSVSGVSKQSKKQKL
# T1 sequence (Q09028 2-425 partner): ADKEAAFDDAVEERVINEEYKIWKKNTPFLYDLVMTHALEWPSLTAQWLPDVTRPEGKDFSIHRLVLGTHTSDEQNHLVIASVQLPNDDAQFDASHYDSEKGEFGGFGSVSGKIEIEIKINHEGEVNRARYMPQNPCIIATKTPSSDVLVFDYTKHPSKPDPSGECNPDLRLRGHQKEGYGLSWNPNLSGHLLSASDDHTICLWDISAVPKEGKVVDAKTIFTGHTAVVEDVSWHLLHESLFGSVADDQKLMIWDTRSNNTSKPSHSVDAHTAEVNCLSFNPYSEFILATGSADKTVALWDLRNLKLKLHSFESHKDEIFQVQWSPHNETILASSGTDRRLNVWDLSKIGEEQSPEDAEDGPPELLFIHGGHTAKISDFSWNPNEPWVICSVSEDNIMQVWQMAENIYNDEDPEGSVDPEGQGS
# T1 sequence (Q6ZN18 2-517 partner): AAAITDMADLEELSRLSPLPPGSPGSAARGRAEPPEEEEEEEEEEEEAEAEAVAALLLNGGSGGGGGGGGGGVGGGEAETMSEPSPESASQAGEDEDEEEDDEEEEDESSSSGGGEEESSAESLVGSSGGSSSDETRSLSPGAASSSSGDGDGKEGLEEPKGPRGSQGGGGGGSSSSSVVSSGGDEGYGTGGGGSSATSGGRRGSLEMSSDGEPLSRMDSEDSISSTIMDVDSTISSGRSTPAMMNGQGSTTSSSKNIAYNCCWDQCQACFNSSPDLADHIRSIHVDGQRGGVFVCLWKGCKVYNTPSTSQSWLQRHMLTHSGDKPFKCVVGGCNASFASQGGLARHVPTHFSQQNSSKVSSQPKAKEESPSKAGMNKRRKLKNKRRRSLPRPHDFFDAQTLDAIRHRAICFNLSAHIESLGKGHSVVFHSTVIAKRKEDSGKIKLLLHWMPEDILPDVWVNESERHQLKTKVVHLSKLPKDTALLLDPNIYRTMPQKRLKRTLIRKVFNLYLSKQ
# [2] = molecular target: EZH2 (zEZH2) (Danio rerio, UniProt Q08BS4); experiment: SPR (Biacore T200), EZH2 immobilized on CM5 chip; format: binding
# Sequence of EZH2 (zEZH2) (Q08BS4 whole entry): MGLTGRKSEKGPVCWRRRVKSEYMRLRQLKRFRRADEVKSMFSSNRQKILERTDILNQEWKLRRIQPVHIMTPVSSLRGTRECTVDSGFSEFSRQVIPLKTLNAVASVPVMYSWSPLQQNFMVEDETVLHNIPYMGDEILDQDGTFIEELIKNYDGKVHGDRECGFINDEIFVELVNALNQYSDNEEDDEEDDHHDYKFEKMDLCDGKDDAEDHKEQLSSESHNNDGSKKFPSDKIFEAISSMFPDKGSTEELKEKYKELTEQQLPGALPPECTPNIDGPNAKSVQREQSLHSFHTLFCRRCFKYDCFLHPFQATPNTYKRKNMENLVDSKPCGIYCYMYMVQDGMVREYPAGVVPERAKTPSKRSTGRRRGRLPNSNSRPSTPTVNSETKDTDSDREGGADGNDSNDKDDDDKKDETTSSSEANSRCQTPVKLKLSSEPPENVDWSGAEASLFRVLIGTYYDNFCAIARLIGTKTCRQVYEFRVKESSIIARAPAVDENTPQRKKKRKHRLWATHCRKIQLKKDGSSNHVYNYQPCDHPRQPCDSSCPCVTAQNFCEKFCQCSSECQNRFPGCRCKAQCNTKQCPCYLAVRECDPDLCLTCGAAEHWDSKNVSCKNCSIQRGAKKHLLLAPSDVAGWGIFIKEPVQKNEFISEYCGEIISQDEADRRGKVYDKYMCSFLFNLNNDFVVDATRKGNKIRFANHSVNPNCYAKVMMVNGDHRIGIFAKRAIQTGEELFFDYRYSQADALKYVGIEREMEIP
# [3] = molecular target: EED (hEED) (Homo sapiens, UniProt O75530); experiment: SPR (Biacore T200), EED immobilized on CM5 chip; format: binding
# Sequence of EED (hEED) (O75530 2-441): as the sequence (O75530 2-441 partner) above
compound,measurement,setting,value
"Cc1coc2c1C(=O)C(=O)c1c-2ccc2c(C)cccc12 [Tan I, Tanshinone I]","in vitro methyltransferase assay with recombinant PRC2 and histone H3.3, western",[1],~ 5 μM
same,pKd,[2],4.53
same,pKd,[3],4.02
